# From ChEMBL document CHEMBL4421722, “Inhibitors of protein prenyltransferases” (2013)
# How the values were obtained:
# [1] = organism: Rattus norvegicus; assay: Inhibition of rat recombinant geranylgeranyltransferase type I expressed in Escherichia coli assessed as residual enzyme activity for geranylgeranylation of K-Ras4B at 50 uM incubated for 30 mins in presence of [3H]GGPP by scintillation counting assay relative to control
# [2] = organism: Rattus norvegicus; assay: Inhibition of rat recombinant geranylgeranyltransferase type I expressed in Escherichia coli assessed as residual enzyme activity for geranylgeranylation of RhoA at 50 uM incubated for 30 mins in presence of [3H]GGPP by scintillation counting assay relative to control
SMILES,Activity [1] [%],Activity [2] [%]
Cc1ccc(S(=O)(=O)N2C[C@@H](C(=O)O)[C@H](Sc3ccccc3)C[C@H]2c2ccccc2F)cc1,51,8.1
Cc1ccccc1S(=O)(=O)N1[C@@H](c2ccc(F)cc2)C(C(=O)O)=CC[C@H]1c1ccc(Cl)cc1,15.6 to 28.8,12.6
Cc1ccc([C@@H]2C[C@@H](Sc3ccc(Cl)cc3)[C@H](C(=O)O)CN2S(=O)(=O)c2ccccc2C)cc1,4 to 6,-4.7 to 10.5
C=CCS[C@H]1[C@@H](C(=O)O)[C@H](c2ccc(C#N)cc2)N(S(=O)(=O)c2ccc(C)cc2)[C@@H]1C(C)C,23.1,9.3
CCC[C@@H]1[C@@H](SCCC(=O)OC(C)(C)C)[C@@H](C(=O)O)[C@H](c2ccc(Cl)cc2)N1S(=O)(=O)c1ccc(Cl)cc1,21.7,9.2
CCCCCC[C@@H]1[C@@H](Sc2ccc(C)cc2)[C@@H](C(=O)O)[C@H](c2ccc(Cl)c(Cl)c2)N1S(=O)(=O)c1ccc(C)cc1,21.3,9.2
C=CCS[C@H]1[C@@H](C(=O)O)[C@H](c2ccc(OC)c(OC)c2)N(S(=O)(=O)c2ccc(C)cc2)[C@@H]1CCCCCC,22.3,8.1
C=CCS[C@H]1[C@@H](C(=O)O)[C@H](c2ccc(Br)cc2)N(S(=O)(=O)c2ccc(C)cc2)[C@@H]1CCC,9.8,7.5
Cc1cccc([C@H]2C(C(=O)O)=CC[C@@H](c3ccc(Cl)cc3)N2S(=O)(=O)c2ccccc2C)c1,15.6 to 81.1,12.4
COc1ccc([C@@H]2C[C@@H](Sc3ccccc3)[C@H](C(=O)O)CN2S(=O)(=O)c2ccc(Cl)cc2)cc1,97.2,11.9
COc1ccc([C@@H]2C[C@@H](Sc3ccc(Cl)cc3)[C@H](C(=O)O)CN2S(=O)(=O)c2ccccc2C)cc1,72.2,17.7
COc1ccc([C@@H]2C[C@@H](SCc3ccccc3)[C@H](C(=O)O)CN2S(=O)(=O)c2ccc(Cl)cc2)cc1,25.9 to 28.7,11.9
COc1ccc([C@@H]2C[C@@H](SCc3ccc(Cl)cc3)[C@H](C(=O)O)CN2S(=O)(=O)c2ccccc2C)cc1,23.9 to 30.9,0.5
Cc1ccccc1S(=O)(=O)N1C[C@@H](C(=O)O)[C@H](SCc2ccc(Cl)cc2)C[C@H]1c1ccc(Cl)cc1,21.3 to 24.5,13
COc1cc([C@@H]2C[C@@H](SCc3ccc(C(C)(C)C)cc3)[C@H](C(=O)O)CN2S(=O)(=O)c2ccc(C)cc2)cc(OC)c1OC,71.3,
CCOc1ccc([C@@H]2C[C@@H](SC3CCCC3)[C@H](C(=O)O)CN2S(=O)(=O)c2ccc(C)cc2)cc1,84.6,
CCCCS[C@@H]1C[C@@H](c2ccc(C)cc2)N(S(=O)(=O)c2ccc(C)cc2)C[C@H]1C(=O)O,82.6,

SMILES,Activity [1] [%],Activity [2] [%]
Cc1ccc(S(=O)(=O)N2[C@@H](c3ccc(F)cc3)C(C(=O)O)=CC[C@H]2c2ccccc2F)cc1,56,
CCCCCCS[C@@H]1C[C@@H](c2ccc(Cl)cc2)N(S(=O)(=O)c2ccc(C)cc2)C[C@H]1C(=O)O,72.2,
COc1ccc([C@@H]2C[C@@H](SCC(C)C)[C@H](C(=O)O)CN2S(=O)(=O)c2ccc(C)cc2)cc1OC,91.6,
Cc1ccc([C@@H]2C[C@@H](SCc3ccccc3)[C@H](C(=O)O)CN2S(C)(=O)=O)cc1,81.8,
Cc1ccc([C@@H]2CC=C(C(=O)O)[C@H](c3cccc(F)c3)N2S(=O)(=O)c2ccccc2)cc1,64.9,
CCCCCS[C@@H]1C[C@@H](c2ccc(Cl)cc2)N(S(=O)(=O)c2ccc(C)cc2)C[C@H]1C(=O)O,59.8,
COc1ccc([C@@H]2C[C@@H](SC3CCCC3)[C@H](C(=O)O)CN2S(=O)(=O)c2ccc(C)cc2)cc1OC,112,
COc1ccc([C@@H]2C[C@@H](SCCC(C)C)[C@H](C(=O)O)CN2S(=O)(=O)c2ccccc2)cc1,96.7,
C=CCS[C@@H]1C[C@@H](c2ccc(OC)c(OC)c2)N(S(=O)(=O)c2ccc(C)cc2)C[C@H]1C(=O)O,109,
Cc1ccc([C@@H]2C[C@@H](SCc3ccc(C(C)(C)C)cc3)[C@H](C(=O)O)CN2S(=O)(=O)c2ccccc2)cc1,68.1,
Cc1ccc(S(=O)(=O)N2C[C@@H](C(=O)O)[C@H](SC3CCCC3)C[C@H]2c2ccc(Cl)cc2)cc1,94.7,
COc1ccc([C@@H]2C[C@@H](SCC(C)C)[C@H](C(=O)O)CN2S(=O)(=O)c2ccc(C)cc2)cc1,79.3,
CCCCCCS[C@@H]1C[C@@H](c2ccc(OC)cc2)N(S(=O)(=O)c2ccccc2C)C[C@H]1C(=O)O,72.9,
CCCCS[C@@H]1C[C@@H](c2cc(OC)c(OC)c(OC)c2)N(S(=O)(=O)c2ccc(C)cc2)C[C@H]1C(=O)O,73.5,
CCCCS[C@@H]1C[C@@H](c2ccc(C)cc2)N(S(=O)(=O)c2ccccc2)C[C@H]1C(=O)O,72.6,
CCCCCS[C@@H]1C[C@@H](c2cc(OC)c(OC)c(OC)c2)N(S(=O)(=O)c2ccc(C)cc2)C[C@H]1C(=O)O,81.8,
CCCCS[C@@H]1C[C@@H](c2ccc(OC)cc2)N(S(=O)(=O)c2ccccc2)C[C@H]1C(=O)O,83.1,

# Continued, values first:
Activity [1] [%],Activity [2] [%],SMILES
,2.9,Cc1ccc(S(=O)(=O)N2C[C@@H](C(=O)O)[C@H](Sc3ccccc3)C[C@H]2c2cccc(Br)c2)cc1
20.4 to 22.8,0.2 to 3.2,Cc1ccc(S(=O)(=O)N2C[C@@H](C(=O)O)[C@H](Sc3ccc(Cl)cc3)C[C@H]2c2cccc(Br)c2)cc1
4.8 to 9.2,3.7,Cc1ccc(S(=O)(=O)N2C[C@@H](C(=O)O)[C@H](SCCc3ccccc3)C[C@H]2c2cccc(Cl)c2)cc1
8.6 to 24.9,3.2,Cc1ccc(S(=O)(=O)N2[C@@H](c3cccc(Br)c3)C(C(=O)O)=CC[C@H]2c2ccc(Cl)c(Cl)c2)cc1
57.5,,Cc1ccc(S(=O)(=O)N2[C@@H](c3ccc(Br)cc3)C(C(=O)O)=CC[C@H]2c2ccc(Cl)cc2)cc1
69.5,,Cc1ccc([C@@H]2CC=C(C(=O)O)[C@H](c3ccc(Br)cc3)N2S(=O)(=O)c2ccc(Cl)cc2)cc1
70.1,,Cc1ccc(S(=O)(=O)N2[C@@H](c3cccc(F)c3)C(C(=O)O)=CC[C@H]2c2ccc(F)cc2)cc1
112,,CC(=O)C1=CC[C@@H](c2ccc(C)cc2)N(S(=O)(=O)c2ccc(Cl)cc2)C1
62.7,,Cc1ccc(S(=O)(=O)N2[C@@H](c3ccc(F)cc3)C(C(=O)O)=CC[C@H]2c2cccc(Br)c2)cc1
77.3,,CCCCCCS[C@@H]1C[C@@H](c2cccc(Cl)c2)N(S(=O)(=O)c2ccc(C)cc2)C[C@H]1C(=O)O
66.6,,Cc1ccc([C@@H]2CC=C(C(=O)O)[C@H](c3cccc(Br)c3)N2S(C)(=O)=O)cc1
86,,CC(=O)C1=CC[C@@H](c2cccc(Cl)c2)N(S(=O)(=O)c2ccc(C)cc2)C1
73.4,,Cc1ccc(S(=O)(=O)N2[C@@H](c3ccc(Cl)cc3)C(C(=O)O)=CC[C@H]2c2ccc3c(c2)OCO3)cc1
88.7,,Cc1ccc(S(=O)(=O)N2C[C@@H](C(=O)O)[C@H](SC3CCCC3)C[C@H]2c2cccc(Cl)c2)cc1
63.1,,Cc1ccc(S(=O)(=O)N2[C@@H](c3cccc(Cl)c3)C(C(=O)O)=CC[C@H]2c2ccc(C(C)C)cc2)cc1
87.1,,Cc1ccc([C@@H]2C[C@@H](Sc3ccccc3)[C@H](C(=O)O)CN2S(=O)(=O)c2ccc(Cl)cc2)cc1
66.3,,Cc1ccc([C@@H]2CC=C(C(=O)O)[C@H](c3cccc(C)c3)N2S(=O)(=O)c2ccc(C)cc2)cc1
